Data taken from US20220071944A1, “Combination Treatment for Solid Tumors Using Docetaxel and a CYP3A Inhibitor” (Modra Pharmaceuticals B.V., priority 2018, published 2022).
Read-outs that look alike come from different tables or passages of the source.

Key:
[1] = every three weeks IV; cited from earlier work
[2] = weekly docetaxel 35 mg/m2 as 0.5 h intravenous infusion; cited from earlier work
[3] = Phase IB/IIA trial M17DOC in mCRPC: docetaxel plasma pharmacokinetics; parameters: species or system human; conditions: in vivo, po
Procedure: A multicenter clinical phase IB/IIA study was conducted in mCRPC (M17DOC), wherein ModraDoc006, an oral docetaxel formulation was combined with ritonavir (ModraDoc006/r), in metastasized castration-resistant prostate cancer (mCRPC).
The study included patients diagnosed with metastasized castration-resistant prostate cancer (mCRPC), dosed in a bi-daily once weekly (BIDW) dosing schedule at 4 dose levels (see table below).

[4] = Weekly intravenous docetaxel 35 mg/m2 pharmacokinetics (Baker et al. 2004); format: in vivo, human; conditions: 35 mg/m2 in 0.5 h vs oral in patients with solid tumors (not prostate)
[5] = IV docetaxel AUC in mCRPC vs other tumors (De Vries Schultink et al. meta-analysis); format: in vivo, human

CC(=O)O[C@@]12CO[C@@H]1C[C@H](O)[C@@]1(C)C(=O)[C@H](O)C3=C(C)[C@@H](OC(=O)[C@H](O)[C@@H](NC(=O)OC(C)(C)C)c4ccccc4)C[C@@](O)([C@@H](OC(=O)c4ccccc4)[C@H]21)C3(C)C [docetaxel]
q3w AUC of IV docetaxel in mCRPC patients [1]: 1820 ng·h/mL
AUC [2]: 480 ± 410 ng·h/mL
CMAX [2]: 1930 ± 600 ng/mL
docetaxel clearance in mCRPC patients vs patients with other solid tumors [3]: higher clearance
CMAX of intravenous docetaxel relative to oral ModraDoc006/r 30-20/100-100 [4]: ten-fold higher
ratio of AUCs for IV docetaxel in mCPRC patients vs other tumors ([5]; 1820/3300): 55%
AUC ([5]; male, human, in vivo, iv, weekly equivalent, mCRPC, read-out: weekly AUC of IV docetaxel in mCRPC patients (q3w AUC divided by 3)): ~600 ng·h/mL
